Data from patent publication US8058306B2, “Phenyl pyrrole aminoguanidine derivatives” (Action Pharma A/S, priority 2006, dated 2011).
Values joined by “and” are separate entries in the source; they are usually repeats but may differ in a detail not shown here. Identical values can stand only once. “Also recorded” adds a separate entry of the source. Like-named read-outs stand apart in the source and are kept apart here.

Experiment: Plasma kinetics in rat following intravenous and oral administration;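 on AUC0-∞: parameter is AUC from zero to infinity in ng·h/mL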
Type: in vivo, Sprague Dawley rats
Procedure: This study determined the intravenous pharmacokinetics and oral bioavailability of compound 1 of the invention (see FIG. 1A, structure no. 1), compound 2 of the invention (see FIG. 1D, structure no. 19) and compound 3 of the invention (see FIG. 1I, structure no. 53) following administration to Sprague Dawley rats at a dose level of 10 mg/kg.
Six groups of 3 male rats received either a single intravenous or single oral administration of compound 1, 2 or 3 of the invention at a dose level of 10 mg/kg. Blood samples were obtained at various times after dosing. Plasma samples were analysed for unchanged test item using a suitable LC-MS/MS method. Pharmacokinetic parameters were estimated from individual plasma concentrations.
Eighteen male rats each received either a single intravenous or a single oral administration of either compound 1, 2 or 3 at a dose level of 10 mg/kg. The formulation was orally administered to each animal by gastric gavage and intravenously administered to each animal via a tail vein. The dose was administered at a dose volume of 5 mL/kg. The formulations were administered to each animal according to the details in the following table:
Blood samples (ca 0.3 mL) were removed from the femoral vein of each animal into tubes containing lithium heparin as anticoagulant.
Blood samples were collected from 3 rats at the following times after dose administration: • 3, 6, 15, 45 min and 1.5, 2.5, 4, 6, 8, 24 h post dose. Oral Administration
Blood samples were collected from 3 rats at the following times after dose administration: • 5, 15, 45 min and 1.5, 2.5, 4, 6, 8, 24 h post dose. Processing of Blood Samples
Pharmacokinetic parameters of compound 1, 2 and 3 were derived by non-compartmental analysis using WinNonLin Pro version 5.0.1 (Pharsight 2005). The following parameters were derived, where appropriate, from the individual plasma concentration versus time profiles:
• F % The absolute oral bioavailability calculated as [AUC0-t (oral)*Dose(iv)/AUC0-t (iv)*Dose (oral)]*100 based on mean values derived after oral and intravenous administration Consideration was given to the estimation of λz and corresponding t1/2 values. Three or more points are required within the terminal phase for λz and t1/2 to be estimated. The following additional variables were tabulated to aid identification of potentially unreliable estimates of t1/2 and AUC:
Pharmacokinetic parameters were reported as geometric mean except Tmax which was reported as the median. Geometric coefficient of variation was calculated as: […]
Actual sampling times were used for all calculations of pharmacokinetic parameters. Plasma concentrations that were below the limit of quantification were taken as zero for the pharmacokinetic analysis.

[1] = intravenous 10 mg/kg, male rats, individual animals, acetate, 10 mg/kg
[2] = male, Sprague Dawley, rat, plasma, iv, 10 mg/kg, single intravenous 10 mg/kg, male rats, individual animals, read-out: Sample Concentration in plasma
[3] = male, Sprague Dawley, rat, plasma, iv, 10 mg/kg, single intravenous 10 mg/kg, male rats, mean of 3, read-out: Mean Concentration in plasma

## N=C(N)NN=CC=Cc1cccn1-c1ccccc1[N+](=O)[O-] [Compound 2, [1-(2-nitrophenyl)-1H-pyrrol-2-yl-allylideneamino]guanidinium acetate]
Sprague Dawley, rat, plasma, 10 mg/kg oral vs intravenous, male rats, from mean AUC0-t, read-out: Mean absolute oral bioavailability
  bioavailability: 3.2%
Intravenous 10 mg/kg, male rats
  Between-animal variability in systemic exposure, coefficient of variation (CV) of AUC0-t: less than 30%
[1]
  AUC0-∞: 1868 ng·h/mL and 2468 ng·h/mL
  AUC(0-t): 1701 ng·h/mL and 2445 ng·h/mL
  C0: 4747 ng/mL and 2637 ng/mL
  CL: 90.45 mL/min/kg and 68.88 mL/min/kg
  MRT: 2.84 h and 4.84 h
  Vss: 15.408 L/kg and 20.008 L/kg
  t1/2: 2.718 h and 3.8896 h
Intravenous 10 mg/kg, rats
  Systemic clearance (in words): high
Intravenous 10 mg/kg, rats, total body water 668 mL/kg, acetate, 10 mg/kg
  volume of distribution compared with total body water (in words): exceeded the total body water; also recorded: markedly greater than that of the total body water
Intravenous 10 mg/kg, hepatic blood flow 3312 mL/h/kg
  systemic plasma clearance (CL) compared with hepatic blood flow (in words): greater than hepatic blood flow
male, Sprague Dawley, rat, plasma, iv, 10 mg/kg, intravenous 10 mg/kg, male rats, Arithmetic Mean
  AUC(0-inf): 2030 ng·h/mL
male, Sprague Dawley, rat, plasma, iv, 10 mg/kg, intravenous 10 mg/kg, male rats, Arithmetic Mean, read-out: AUC0-t
  AUC(0-t): 1880 ng·h/mL
male, Sprague Dawley, rat, plasma, iv, 10 mg/kg, intravenous 10 mg/kg, male rats, Arithmetic Mean, read-out: C0
  C0: 3470 ng/mL
male, Sprague Dawley, rat, plasma, iv, 10 mg/kg, intravenous 10 mg/kg, male rats, Arithmetic Mean, read-out: CL (converted)
  clearance: 85.5 mL/min/kg
male, Sprague Dawley, rat, plasma, iv, 10 mg/kg, intravenous 10 mg/kg, male rats, Arithmetic Mean, read-out: MRT
  MRT: 3.74 h
male, Sprague Dawley, rat, plasma, iv, 10 mg/kg, intravenous 10 mg/kg, male rats, Arithmetic Mean, read-out: Vss
  Vd: 18.7 L/kg
male, Sprague Dawley, rat, plasma, iv, 10 mg/kg, intravenous 10 mg/kg, male rats, Arithmetic Mean, read-out: t1/2 (converted)
  half-life: 3.29 h
male, Sprague Dawley, rat, plasma, iv, 10 mg/kg, intravenous 10 mg/kg, male rats, Geometric mean
  AUC(0-inf): 2010 ng·h/mL
male, Sprague Dawley, rat, plasma, iv, 10 mg/kg, intravenous 10 mg/kg, male rats, Geometric mean, read-out: AUC0-t
  AUC(0-t): 1840 ng·h/mL
male, Sprague Dawley, rat, plasma, iv, 10 mg/kg, intravenous 10 mg/kg, male rats, Geometric mean, read-out: C0
  C0: 3360 ng/mL
male, Sprague Dawley, rat, plasma, iv, 10 mg/kg, intravenous 10 mg/kg, male rats, Geometric mean, read-out: CL (systemic plasma clearance) (converted)
  clearance: 84.6 mL/min/kg
male, Sprague Dawley, rat, plasma, iv, 10 mg/kg, intravenous 10 mg/kg, male rats, Geometric mean, read-out: MRT
  MRT: 3.65 h
male, Sprague Dawley, rat, plasma, iv, 10 mg/kg, intravenous 10 mg/kg, male rats, Geometric mean, read-out: Vss (mean apparent volume of distribution)
  Vd: 18.5 L/kg
male, Sprague Dawley, rat, plasma, iv, 10 mg/kg, intravenous 10 mg/kg, male rats, Geometric mean, read-out: t1/2 (mean apparent terminal half-life) (converted)
  half-life: 3.25 h
male, Sprague Dawley, rat, plasma, iv, 10 mg/kg, intravenous 10 mg/kg, male rats, Median
  AUC(0-inf): 1870 ng·h/mL
male, Sprague Dawley, rat, plasma, iv, 10 mg/kg, intravenous 10 mg/kg, male rats, Median, read-out: AUC0-t
  AUC(0-t): 1700 ng·h/mL
male, Sprague Dawley, rat, plasma, iv, 10 mg/kg, intravenous 10 mg/kg, male rats, Median, read-out: C0
  C0: 3020 ng/mL
male, Sprague Dawley, rat, plasma, iv, 10 mg/kg, intravenous 10 mg/kg, male rats, Median, read-out: CL (converted)
  clearance: 90.5 mL/min/kg
male, Sprague Dawley, rat, plasma, iv, 10 mg/kg, intravenous 10 mg/kg, male rats, Median, read-out: MRT
  MRT: 3.53 h
male, Sprague Dawley, rat, plasma, iv, 10 mg/kg, intravenous 10 mg/kg, male rats, Median, read-out: Vss
  Vd: 20 L/kg
male, Sprague Dawley, rat, plasma, iv, 10 mg/kg, intravenous 10 mg/kg, male rats, Median, read-out: t1/2 (converted)
  half-life: 3.25 h
male, Sprague Dawley, rat, plasma, iv, 10 mg/kg, intravenous 10 mg/kg, male rats, individual animals
  AUC(0-inf): 1750 ng·h/mL
male, Sprague Dawley, rat, plasma, iv, 10 mg/kg, intravenous 10 mg/kg, male rats, individual animals, read-out: AUC0-t
  AUC(0-t): 1500 ng·h/mL
male, Sprague Dawley, rat, plasma, iv, 10 mg/kg, intravenous 10 mg/kg, male rats, individual animals, read-out: C0
  C0: 3020 ng/mL
male, Sprague Dawley, rat, plasma, iv, 10 mg/kg, intravenous 10 mg/kg, male rats, individual animals, read-out: CL (converted)
  clearance: 97.1 mL/min/kg
male, Sprague Dawley, rat, plasma, iv, 10 mg/kg, intravenous 10 mg/kg, male rats, individual animals, read-out: MRT
  MRT: 3.53 h
male, Sprague Dawley, rat, plasma, iv, 10 mg/kg, intravenous 10 mg/kg, male rats, individual animals, read-out: Vss
  Vd: 20.6 L/kg
male, Sprague Dawley, rat, plasma, iv, 10 mg/kg, intravenous 10 mg/kg, male rats, individual animals, read-out: t1/2 (converted)
  half-life: 3.25 h
male, Sprague Dawley, rat, plasma, iv, 10 mg/kg, single intravenous 10 mg/kg, male rats, 0.05 h (3 min), mean of 3, read-out: Mean Concentration in plasma
  concentration at 0.05 h: 2350 ng/mL
male, Sprague Dawley, rat, plasma, iv, 10 mg/kg, single intravenous 10 mg/kg, male rats, 0.05 h, individual animals, read-out: Sample Concentration in plasma
  concentration at 0.05 h: 1640 ng/mL
[2]
  concentration at 0.1 h: 1590 ng/mL
  concentration at 0.25 h: 847 ng/mL
  concentration at 0.75 h: 264 ng/mL
  concentration at 1.5 h: 250 ng/mL
  concentration at 2.5 h: 195 ng/mL
  concentration at 4 h: 122 ng/mL
  concentration at 6 h: 83.9 ng/mL
[3]
  concentration at 0.1 h: 1340 ng/mL
  concentration at 0.25 h: 724 ng/mL
  concentration at 0.75 h: 278 ng/mL
  concentration at 1.5 h: 217 ng/mL
  concentration at 2.5 h: 191 ng/mL
  concentration at 4 h: 132 ng/mL
  concentration at 6 h: 86 ng/mL
male, Sprague Dawley, rat, plasma, iv, 10 mg/kg, single intravenous 10 mg/kg, male rats, 8 h, mean, read-out: Mean Concentration in plasma
  concentration at 8 h: 65.1 ng/mL
